Active and inactive are the calls of the source. No rule for the calls is given here.
System: CCRIS mutagenicity, Ames/micronucleus/aberration tests
Experiment: CCRIS mutagenicity studies
[1] = Test System: AMES SALMONELLA TYPHIMURIUM, Strain/Indicator: TA98, Metabolic Activation: NONE, Method: PREINCUBATION
[2] = Test System: AMES SALMONELLA TYPHIMURIUM, Strain/Indicator: TA98, Metabolic Activation: NONE, Method: STANDARD PLATE
[3] = Test System: AMES SALMONELLA TYPHIMURIUM, Strain/Indicator: TA98, Metabolic Activation: RAT, LIVER, S-9, AROCLOR 1254, Method: STANDARD PLATE
[4] = Test System: AMES SALMONELLA TYPHIMURIUM, Strain/Indicator: TA100, Metabolic Activation: NONE, Method: PREINCUBATION
[5] = Test System: AMES SALMONELLA TYPHIMURIUM, Strain/Indicator: TA100, Metabolic Activation: NONE, Method: STANDARD PLATE
[6] = Test System: AMES SALMONELLA TYPHIMURIUM, Strain/Indicator: TA100, Metabolic Activation: RAT, LIVER, S-9, AROCLOR 1254, Method: STANDARD PLATE
[7] = Test System: AMES SALMONELLA TYPHIMURIUM, Strain/Indicator: TA1535, Metabolic Activation: NONE, Method: STANDARD PLATE
[8] = Test System: AMES SALMONELLA TYPHIMURIUM, Strain/Indicator: TA1535, Metabolic Activation: RAT, LIVER, S-9, AROCLOR 1254, Method: STANDARD PLATE
[9] = Test System: AMES SALMONELLA TYPHIMURIUM, Strain/Indicator: TA1537, Metabolic Activation: NONE, Method: STANDARD PLATE
[10] = Test System: AMES SALMONELLA TYPHIMURIUM, Strain/Indicator: TA1537, Metabolic Activation: RAT, LIVER, S-9, AROCLOR 1254, Method: STANDARD PLATE
[11] = Test System: AMES SALMONELLA TYPHIMURIUM, Strain/Indicator: TA1538, Metabolic Activation: NONE, Method: STANDARD PLATE
[12] = Test System: AMES SALMONELLA TYPHIMURIUM, Strain/Indicator: TA1538, Metabolic Activation: RAT, LIVER, S-9, AROCLOR 1254, Method: STANDARD PLATE

With CCOC(=O)CBr the mutagenic call (End Point: IN VITRO CHROMOSOMAL ABERRATIONS, Test System: CHL CELLS, Metabolic Activation: RAT, LIVER, S-9, SODIUM PHENOBARBITAL AND 5,6-BENZOFLAVONE) was “inactive; negative; authors report equivocal results for structural changes at highest dos”, the mutagenic call [1] was “inactive; negative” and the mutagenic call [2] was “inactive; negative”. For the same molecule, the mutagenic call (Test System: AMES SALMONELLA TYPHIMURIUM, Strain/Indicator: TA98, Metabolic Activation: RAT LIVER S-9, PHENOBARBITAL AND BETA-NAPHTHOFLAVONE, Method: PREINCUBATION) was “inactive; negative”, the mutagenic call [3] was “inactive; negative” and the mutagenic call [4] was “inactive; negative”. The mutagenic call [5] was “inactive; negative”, the mutagenic call (Test System: AMES SALMONELLA TYPHIMURIUM, Strain/Indicator: TA100, Metabolic Activation: RAT LIVER S-9, PHENOBARBITAL AND BETA-NAPHTHOFLAVONE, Method: PREINCUBATION) was “inactive; negative” and the mutagenic call [6] was “inactive; negative”. For the same molecule, the mutagenic call (Test System: AMES SALMONELLA TYPHIMURIUM, Strain/Indicator: TA102, Metabolic Activation: NONE, Method: PREINCUBATION) was “inactive; negative”, the mutagenic call (Test System: AMES SALMONELLA TYPHIMURIUM, Strain/Indicator: TA102, Metabolic Activation: RAT LIVER S-9, PHENOBARBITAL AND BETA-NAPHTHOFLAVONE, Method: PREINCUBATION) was “inactive; negative” and the mutagenic call (Test System: AMES SALMONELLA TYPHIMURIUM, Strain/Indicator: TA104, Metabolic Activation: NONE, Method: PREINCUBATION) was “inactive; negative”. The mutagenic call (Test System: AMES SALMONELLA TYPHIMURIUM, Strain/Indicator: TA104, Metabolic Activation: RAT LIVER S-9, PHENOBARBITAL AND BETA-NAPHTHOFLAVONE, Method: PREINCUBATION) was “active; positive”, the mutagenic call (Test System: AMES SALMONELLA TYPHIMURIUM, Strain/Indicator: TA1535, Metabolic Activation: HAMSTER, LIVER, S-9, AROCLOR 1254, Method: STANDARD PLATE) was “inactive; negative” and the mutagenic call (Test System: AMES SALMONELLA TYPHIMURIUM, Strain/Indicator: TA1535, Metabolic Activation: NONE, Method: PREINCUBATION) was “inactive; negative”. The mutagenic call [7] was “inactive; negative”, the mutagenic call (Test System: AMES SALMONELLA TYPHIMURIUM, Strain/Indicator: TA1535, Metabolic Activation: RAT LIVER S-9, PHENOBARBITAL AND BETA-NAPHTHOFLAVONE, Method: PREINCUBATION) was “inactive; negative” and the mutagenic call [8] was “inactive; negative”. The mutagenic call (Test System: AMES SALMONELLA TYPHIMURIUM, Strain/Indicator: TA1537, Metabolic Activation: HAMSTER, LIVER, S-9, AROCLOR 1254, Method: STANDARD PLATE) was “inactive; negative”, the mutagenic call (Test System: AMES SALMONELLA TYPHIMURIUM, Strain/Indicator: TA1537, Metabolic Activation: NONE, Method: PREINCUBATION) was “inactive; negative” and the mutagenic call [9] was “inactive; negative”. The mutagenic call (Test System: AMES SALMONELLA TYPHIMURIUM, Strain/Indicator: TA1537, Metabolic Activation: RAT LIVER S-9, PHENOBARBITAL AND BETA-NAPHTHOFLAVONE, Method: PREINCUBATION) was “inactive; negative”, the mutagenic call [10] was “inactive; negative” and the mutagenic call (Test System: AMES SALMONELLA TYPHIMURIUM, Strain/Indicator: TA1538, Metabolic Activation: HAMSTER, LIVER, S-9, AROCLOR 1254, Method: STANDARD PLATE) was “inactive; negative”. For the same molecule, the mutagenic call [11] was “inactive; negative”, the mutagenic call [12] was “inactive; negative” and the mutagenic call (Test System: E.COLI, Strain/Indicator: WP2UVRA/PKM101, Metabolic Activation: NONE, Method: PREINCUBATION) was “inactive; negative”. The mutagenic call (Test System: E.COLI, Strain/Indicator: WP2UVRA/PKM101, Metabolic Activation: RAT LIVER S-9, PHENOBARBITAL AND BETA-NAPHTHOFLAVONE, Method: PREINCUBATION) was “active; positive”, the mutagenic call (Test System: E.COLI, Strain/Indicator: WP2UVRA, Metabolic Activation: NONE, Method: PREINCUBATION) was “inactive; negative” and the mutagenic call (Test System: E.COLI, Strain/Indicator: WP2UVRA, Metabolic Activation: RAT LIVER S-9, PHENOBARBITAL AND BETA-NAPHTHOFLAVONE, Method: PREINCUBATION) was “inactive; negative”. The mutagenic call (Test System: MOUSE LYMPHOMA, Strain/Indicator: L5178Y (TK+/TK-), Metabolic Activation: NONE, Method: SUSPENSION/PLATE) was “active; positive. reevaluation of results: inconclusive” and the mutagenic call (Test System: MOUSE LYMPHOMA, Strain/Indicator: L5178Y (TK+/TK-), Metabolic Activation: RAT, LIVER, S-9, AROCLOR 1254, Method: SUSPENSION/PLATE) was “active; positive. reevaluation of results: inconclusive”.
With Cn1cnc2c3cccnc3ccc21 the mutagenic call [1] was “active; positive”, the mutagenic call (Test System: AMES SALMONELLA TYPHIMURIUM, Strain/Indicator: TA98, Metabolic Activation: RAT, LIVER, S-9, AROCLOR 1254, Method: PREINCUBATION) was “active; positive” and the mutagenic call [4] was “active; positive”. For the same molecule, the mutagenic call (Test System: AMES SALMONELLA TYPHIMURIUM, Strain/Indicator: TA100, Metabolic Activation: RAT, LIVER, S-9, AROCLOR 1254, Method: PREINCUBATION) was “active; positive”.
With CC(=O)Nc1ccc(S(=O)(=O)c2ccc(NC(C)=O)cc2)cc1 the mutagenic call [2] was “inactive; negative”, the mutagenic call (Test System: AMES SALMONELLA TYPHIMURIUM, Strain/Indicator: TA98, Metabolic Activation: RAT, LIVER, S-9, PCB, Method: STANDARD PLATE) was “inactive; negative” and the mutagenic call [5] was “inactive; negative”. For the same molecule, the mutagenic call (Test System: AMES SALMONELLA TYPHIMURIUM, Strain/Indicator: TA100, Metabolic Activation: RAT, LIVER, S-9, PCB, Method: STANDARD PLATE) was “inactive; negative”.
In the case of C=CC(=O)OCC(C)(C)C, the mutagenic call [2] is reported as “inactive; negative”, the mutagenic call [3] is reported as “inactive; negative” and the mutagenic call (Test System: AMES SALMONELLA TYPHIMURIUM, Strain/Indicator: TA98, Metabolic Activation: RAT, LIVER, S-9, SODIUM PHENOBARBITAL, Method: STANDARD PLATE) is reported as “inactive; negative”. The mutagenic call [5] was “inactive; negative”, the mutagenic call [6] was “inactive; negative” and the mutagenic call (Test System: AMES SALMONELLA TYPHIMURIUM, Strain/Indicator: TA100, Metabolic Activation: RAT, LIVER, S-9, SODIUM PHENOBARBITAL, Method: STANDARD PLATE) was “inactive; negative”. The mutagenic call [7] was “inactive; negative”, the mutagenic call [8] was “inactive; negative” and the mutagenic call (Test System: AMES SALMONELLA TYPHIMURIUM, Strain/Indicator: TA1535, Metabolic Activation: RAT, LIVER, S-9, SODIUM PHENOBARBITAL, Method: STANDARD PLATE) was “inactive; negative”. The mutagenic call [9] was “inactive; negative”, the mutagenic call [10] was “inactive; negative” and the mutagenic call (Test System: AMES SALMONELLA TYPHIMURIUM, Strain/Indicator: TA1537, Metabolic Activation: RAT, LIVER, S-9, SODIUM PHENOBARBITAL, Method: STANDARD PLATE) was “inactive; negative”. For the same molecule, the mutagenic call [11] was “inactive; negative”, the mutagenic call [12] was “inactive; negative” and the mutagenic call (Test System: AMES SALMONELLA TYPHIMURIUM, Strain/Indicator: TA1538, Metabolic Activation: RAT, LIVER, S-9, SODIUM PHENOBARBITAL, Method: STANDARD PLATE) was “inactive; negative”.

Source: PubChem BioAssay AID1259407 (Chemical Carcinogenesis Research Information System (CCRIS), 2018)
